Assay results as given in PubChem BioAssay AID330 (DTP/NCI, 2004).
Where “and” joins values, the source holds several entries; their conditions need not be identical. Equal entries are not always repeated. Inconclusive results and toxic doses are left out. Rule for the calls: active = survival T/C of 150% or more; inactive = T/C below 125% in these data.

Tested on: P388 leukemia ip, CD2F1 mice, survival T/C
Experiment: NCI In Vivo Anticancer Drug Screen. Data for tumor model P388 Leukemia (intraperitoneal) in CD2F1 (CDF1) mice
Conditions: endpoint: median survival time, higher = longer survival
Summary of the method: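 Mice carrying the transplanted tumor received test compound or vehicle. Survival was recorded in each group, and the value is the treated-group measurement divided by that of the vehicle-treated control group.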

[1] = dose: 50.0 mg/kg/injection, schedule: Q01DX009 (ip), vehicle: saline with Tween-80
[2] = dose: 100.0 mg/kg/injection, schedule: Q01DX009 (ip), vehicle: saline with Tween-80
[3] = dose: 200.0 mg/kg/injection, schedule: Q01DX009 (ip), vehicle: saline with Tween-80
[4] = dose: 100.0 mg/kg/injection, schedule: Q04DX002 (ip), vehicle: Klucel (hydroxypropylcellulose) (HPC)
[5] = dose: 200.0 mg/kg/injection, schedule: Q04DX002 (ip), vehicle: Klucel (hydroxypropylcellulose) (HPC)
[6] = dose: 50.0 mg/kg/injection, schedule: Q01DX005 (ip), vehicle: saline with Tween-80
[7] = dose: 100.0 mg/kg/injection, schedule: Q01DX005 (ip), vehicle: saline with Tween-80
[8] = dose: 50.0 mg/kg/injection, schedule: Q01DX005 (ip), vehicle: Klucel (hydroxypropylcellulose) (HPC)
[9] = dose: 100.0 mg/kg/injection, schedule: Q01DX005 (ip), vehicle: Klucel (hydroxypropylcellulose) (HPC)
[10] = dose: 200.0 mg/kg/injection, schedule: Q01DX005 (ip), vehicle: Klucel (hydroxypropylcellulose) (HPC)
[11] = dose: 12.5 mg/kg/injection, schedule: Q01DX005 (ip), vehicle: Klucel (hydroxypropylcellulose) (HPC)

Measured: T/C

COc1cccc2c1C(=O)c1c(O)c3c(c(O)c1C2=O)CC(O)(C(C)=O)CC3OC1CC(OC(=O)c2ccc([N+](=O)[O-])cc2)C(OC(=O)c2ccc([N+](=O)[O-])cc2)C(COC(=O)c2ccc([N+](=O)[O-])cc2)O1 (stereo not drawn)
inactive: dose: 3.13 mg/kg/injection, schedule: Q04DX003 (ip), vehicle: distilled water + Tween-80 100 % of control and 101 % of control | dose: 6.25 mg/kg/injection, schedule: Q04DX003 (ip), vehicle: distilled water + Tween-80 100 % of control and 99 % of control | dose: 12.5 mg/kg/injection, schedule: Q04DX003 (ip), vehicle: distilled water + Tween-80 104 % of control | dose: 25.0 mg/kg/injection, schedule: Q04DX003 (ip), vehicle: distilled water + Tween-80 102 % of control and 100 % of control | dose: 50.0 mg/kg/injection, schedule: Q04DX003 (ip), vehicle: distilled water + Tween-80 95 % of control

O=C1C2CCC(CC2)C1C(c1ccccc1)c1ccccc1 (stereo not drawn)
inactive: [1] 93 % of control | [2] 91 % of control | [3] 90 % of control

CN(C)c1ccc(C(Cl)[O][Sn]([Cl])([c]2ccccc2)[c]2ccccc2)cc1.[CH3][Sn]([CH3])([Cl])[Cl] (stereo not drawn)
inactive: dose: 1.56 mg/kg/injection, schedule: Q01DX005 (ip), vehicle: saline with Tween-80 112 % of control | dose: 3.12 mg/kg/injection, schedule: Q01DX005 (ip), vehicle: saline with Tween-80 113 % of control and 119 % of control | dose: 6.25 mg/kg/injection, schedule: Q01DX005 (ip), vehicle: saline with Tween-80 109 % of control

BOc1ccc(C)cc1CN(C)Cc1ccccc1
inactive: [4] 103 % of control | [5] 99 % of control | dose: 400.0 mg/kg/injection, schedule: Q04DX002 (ip), vehicle: Klucel (hydroxypropylcellulose) (HPC) 104 % of control

CC1Cc2c([nH]c3ccccc3c2=O)O1 (stereo not drawn)
inactive: dose: 50.0 mg/kg/injection, schedule: Q01DX009 (ip), vehicle: saline 93 % of control | dose: 100.0 mg/kg/injection, schedule: Q01DX009 (ip), vehicle: saline 101 % of control | dose: 200.0 mg/kg/injection, schedule: Q01DX009 (ip), vehicle: saline 100 % of control

Cc1cccc(NC(=O)C(=O)CC(=O)c2ccc([N+](=O)[O-])cc2)c1C
inactive: [6] 105 % of control | [7] 108 % of control | dose: 200.0 mg/kg/injection, schedule: Q01DX005 (ip), vehicle: saline with Tween-80 106 % of control

Cc1ccc2nc3sc(=O)sc3nc2c1
inactive: dose: 60.0 mg/kg/injection, schedule: Q01DX005 (ip), vehicle: Klucel (hydroxypropylcellulose) (HPC) 101 % of control | dose: 120.0 mg/kg/injection, schedule: Q01DX005 (ip), vehicle: Klucel (hydroxypropylcellulose) (HPC) 107 % of control

Cn1nc(C(N)=O)c2c(N)ncnc21
inactive: dose: 0.94 mg/kg/injection, schedule: Q01DX005 (ip), vehicle: saline with Tween-80 105 % of control | dose: 1.88 mg/kg/injection, schedule: Q01DX005 (ip), vehicle: saline with Tween-80 92 % of control | dose: 3.75 mg/kg/injection, schedule: Q01DX005 (ip), vehicle: saline with Tween-80 104 % of control | dose: 7.5 mg/kg/injection, schedule: Q01DX005 (ip), vehicle: saline with Tween-80 91 % of control

CSC1=NCc2c(sc3c2CCCC3)N1
inactive: [8] 100 % of control | [9] 106 % of control | [10] 98 % of control

COc1cccc2cc(-n3nnc4ccccc43)c(=O)oc12
inactive: dose: 30.0 mg/kg/injection, schedule: Q01DX005 (ip), vehicle: saline with Tween-80 94 % of control | dose: 60.0 mg/kg/injection, schedule: Q01DX005 (ip), vehicle: saline with Tween-80 86 % of control and 91 % of control and 94 % of control | dose: 120.0 mg/kg/injection, schedule: Q01DX005 (ip), vehicle: saline with Tween-80 94 % of control | dose: 240.0 mg/kg/injection, schedule: Q01DX005 (ip), vehicle: saline with Tween-80 86 % of control and 87 % of control

CS(=O)(=O)C(=C1C(=O)NC(=O)NC1=O)S(C)(=O)=O
inactive: [11] 98 % of control | dose: 25.0 mg/kg/injection, schedule: Q01DX005 (ip), vehicle: Klucel (hydroxypropylcellulose) (HPC) 100 % of control | [8] 107 % of control and 109 % of control

C(#Cc1c2ccccc2c(C#Cc2ccccc2)c2c1oc1c3ccccc3ccc12)c1ccccc1
inactive: dose: 100.0 mg/kg/injection, schedule: Q04DX003 (ip), vehicle: saline with Tween-80 97 % of control | dose: 200.0 mg/kg/injection, schedule: Q04DX003 (ip), vehicle: saline with Tween-80 97 % of control | dose: 400.0 mg/kg/injection, schedule: Q04DX003 (ip), vehicle: saline with Tween-80 92 % of control

CCOc1cc2c(C)c3ccccc3c(C)c2c2ccccc12
inactive: dose: 42.0 mg/kg/injection, schedule: Q01DX009 (ip), vehicle: saline with Tween-80 98 % of control | dose: 50.0 mg/kg/injection, schedule: Q04DX003 (ip), vehicle: other 88 % of control | dose: 84.0 mg/kg/injection, schedule: Q01DX009 (ip), vehicle: saline with Tween-80 94 % of control | dose: 100.0 mg/kg/injection, schedule: Q04DX003 (ip), vehicle: other 86 % of control | dose: 168.0 mg/kg/injection, schedule: Q01DX009 (ip), vehicle: saline with Tween-80 107 % of control | dose: 400.0 mg/kg/injection, schedule: Q04DX003 (ip), vehicle: other 86 % of control

O=C(CCSCCC(=O)N/N=C/C(O)C(O)C(O)CO)N/N=C/C(O)C(O)C(O)CO (stereo not drawn)
inactive: [8] 103 % of control and 97 % of control | [9] 99 % of control and 94 % of control | [10] 99 % of control and 95 % of control

C=CCSC(=NC#N)SC
inactive: dose: 3.12 mg/kg/injection, schedule: Q01DX005 (ip), vehicle: Klucel (hydroxypropylcellulose) (HPC) 101 % of control | dose: 6.25 mg/kg/injection, schedule: Q01DX005 (ip), vehicle: Klucel (hydroxypropylcellulose) (HPC) 101 % of control | [11] 107 % of control

CC/C(=C(/CC)c1ccc(OCC(=O)N/N=C2/C=C3CCC4C(CCC5(C)C(O)CCC45)C3(C)CC2)cc1)c1ccc(OCC(=O)N/N=C2\C=C3CCC4C(CCC5(C)C(O)CCC45)C3(C)CC2)cc1 (stereo not drawn)
inactive: dose: 50.0 mg/kg/injection, schedule: Q01DX001 (ip), vehicle: Klucel (hydroxypropylcellulose) (HPC) 95 % of control | dose: 100.0 mg/kg/injection, schedule: Q01DX001 (ip), vehicle: Klucel (hydroxypropylcellulose) (HPC) 87 % of control

CN(CCc1ccccn1)c1ccc2c(c1)C(=O)c1ccccc1-2
inactive: [6] 100 % of control | [7] 93 % of control

COC(=O)c1[nH]c(=S)[nH]c(=O)c1C
inactive: [6] 89 % of control | [7] 97 % of control

O=[N+]([O-])c1ccccc1-c1ccccc1N=Cc1ccccc1
inactive: dose: 6.25 mg/kg/injection, schedule: Q01DX009 (ip), vehicle: saline with Tween-80 96 % of control | dose: 12.5 mg/kg/injection, schedule: Q01DX009 (ip), vehicle: saline with Tween-80 106 % of control | dose: 25.0 mg/kg/injection, schedule: Q01DX009 (ip), vehicle: saline with Tween-80 86 % of control

Cc1cc(C(=O)NC(C)c2ccc(S(=O)(=O)NC(=O)NC3CCCCC3)cc2)no1 (stereo not drawn)
inactive: dose: 50.0 mg/kg/injection, schedule: Q04DX002 (ip), vehicle: Klucel (hydroxypropylcellulose) (HPC) 99 % of control | [4] 100 % of control | [5] 97 % of control

NC(=O)CC1=Cc2c(ccc3ccc(O)cc23)C1
inactive: dose: 12.5 mg/kg/injection, schedule: Q01DX009 (ip), vehicle: distilled water + Tween-80 97 % of control | dose: 25.0 mg/kg/injection, schedule: Q01DX009 (ip), vehicle: distilled water + Tween-80 91 % of control | dose: 50.0 mg/kg/injection, schedule: Q01DX009 (ip), vehicle: distilled water + Tween-80 102 % of control | dose: 100.0 mg/kg/injection, schedule: Q01DX009 (ip), vehicle: distilled water + Tween-80 93 % of control | dose: 200.0 mg/kg/injection, schedule: Q01DX009 (ip), vehicle: distilled water + Tween-80 90 % of control

CC1=Nc2ccc([N+](=O)[O-])cc2N=C(C)C1
inactive: [1] 101 % of control | [2] 98 % of control | dose: 100.0 mg/kg/injection, schedule: Q04DX002 (ip), vehicle: saline 101 % of control | [3] 90 % of control | dose: 200.0 mg/kg/injection, schedule: Q04DX002 (ip), vehicle: saline 101 % of control | dose: 400.0 mg/kg/injection, schedule: Q04DX002 (ip), vehicle: saline 105 % of control

CC(=O)/C(=C\c1ccco1)C(=O)CCN(C)C
inactive: dose: 60.0 mg/kg/injection, schedule: Q01DX005 (ip), vehicle: saline 108 % of control and 109 % of control and 115 % of control | dose: 120.0 mg/kg/injection, schedule: Q01DX005 (ip), vehicle: saline 106 % of control and 118 % of control and 120 % of control | dose: 240.0 mg/kg/injection, schedule: Q01DX005 (ip), vehicle: saline 108 % of control and 115 % of control | dose: 480.0 mg/kg/injection, schedule: Q01DX005 (ip), vehicle: saline 101 % of control
